# Values quoted from earlier work, collected in US7385060B2, “Method for producing salts of tolperisone” (Sanochemia Pharmazeutika AG, priority 2002, dated 2008).
# Columns and labels:
# HMN = conditions: inhalation, human, 30 m
# RAT = conditions: oral
compound,measurement,setting,value
C=O [formaldehyde],IHL-TCLO HMN,HMN,17 mg/m^3/30 m
same,ORL-RAT LD50,RAT,100 mg/kg
